# Tested on: Mycobacterium tuberculosis H37Rv strains
# Assay: In vitro assay for antimicrobial susceptibility (microplate Alamar blue MIC)
# Assay type: cell-based
# Conditions: Mycobacterium tuberculosis, H37RV, 7H9, Alamar blue, inhibition ≧90%; read-out: MIC (μg/mL) against H37Rv
row,Compound,MIC [µg/mL]
1,"Clc1ccc(-n2c3c/c(=N\C4CCOCC4)c(Nc4ncccn4)cc-3nc3ccccc32)cc1 [TBI-860, 5-(4-Chlorophenyl)-3-(4-tetrahydropyranyl)imino-2-(pyrimidin-2-yl)amino-3,5-dihydrophenazine]",0.029
2,"CC(C)/N=c1\cc2n(-c3ccc(F)c(F)c3)c3ccccc3nc-2cc1Nc1cnccn1 [TBI-1446, 5-(3,4-Difluorophenyl)-3-(1-methylethyl)imino-2-(pyrazin-2-yl)amino-3,5-dihydrophenazine]",0.03

# Same assay, conditions: Mycobacterium tuberculosis, H37RV, in vitro, Mycobacterium tuberculosis H37Rv strains; read-out: MIC (μg/mL) against H37Rv
row,Compound,MIC [µg/mL]
1,"COc1ncccc1Nc1cc2nc3ccccc3n(-c3ccccc3OC(F)(F)F)c-2c/c1=N\C(C)C [TBI-1046, 5-(2-Trifluoromethoxyphenyl)-3-(1-methylethyl)imino-2-(2-methoxy-3-pyridyl)amino-3,5-dihydrophenazine]",0.44
2,"Cc1ccc(Nc2cc3nc4ccccc4n(-c4ccc(F)cc4)c-3c/c2=N\C2CCSCC2)cn1 [TBI-90B, 5-(4-Fluorophenyl)-3-(4-tetrahydrothiopyranyl)imino-2-(6-methyl-3-pyridyl)amino-3,5-dihydrophenazine]",0.397
3,"COC1CCC(/N=c2\cc3n(-c4ccccc4)c4ccccc4nc-3cc2Nc2cccnc2)CC1 (stereo not drawn) [TBI-059, 5-Phenyl-3-(4-methoxycyclohexyl)imino-2-(3-pyridyl)amino-3,5-dihydrophenazine]",0.125
4,"Fc1ccc(-n2c3c/c(=N\C4CCCCC4)c(Nc4cccnc4)cc-3nc3ccccc32)cc1 [TBI-920, 5-(4-Fluorophenyl)-3-cyclohexylimino-2-(3-pyridyl)amino-3,5-dihydrophenazine]",0.029
5,"COC1CCC(/N=c2\cc3n(-c4ccc(C)cc4)c4ccccc4nc-3cc2Nc2ccc(C)nc2)CC1 (stereo not drawn) [TBI-316, 5-(4-Methylphenyl)-3-(4-methoxycyclohexyl)imino-2-(6-methyl-3-pyridyl)amino-3,5-dihydrophenazine]",0.028
6,COC1CCC(/N=c2\cc3n(-c4ccccc4C(F)(F)F)c4ccccc4nc-3cc2Nc2cccnc2)CC1 (stereo not drawn) [TBI-739],0.239
7,"COc1ncccc1Nc1cc2nc3ccccc3n(-c3ccc(C)cc3)c-2c/c1=N\C1CCC(O)CC1 (stereo not drawn) [TBI-332, 5-(4-Methylphenyl)-3-(4-hydroxycyclohexyl)imino-2-(2-methoxy-3-pyridyl)amino-3,5-dihydrophenazine]",0.294
8,"Cc1ccc(-n2c3c/c(=N\C4CCC(O)CC4)c(Nc4cncc(C)c4)cc-3nc3ccccc32)cc1 (stereo not drawn) [TBI-337, 5-(4-Methylphenyl)-3-(4-hydroxycyclohexyl)imino-2-(5-methyl-3-pyridyl)amino-3,5-dihydrophenazine]",0.452
9,"COc1ncccc1Nc1cc2nc3cc(C#N)ccc3n(-c3ccc(F)cc3)c-2c/c1=N\C(C)C [TBI-1064, 8-Cyano-5-(4-fluorophenyl)-3-(1-methylethyl)imino-2-(2-methoxy-3-pyridyl)amino-3,5-dihydrophenazine]",0.24
10,"COC1CCC(/N=c2\cc3n(-c4ccc(C)cc4)c4ccccc4nc-3cc2Nc2cccnc2C)CC1 (stereo not drawn) [TBI-322, 5-(4-Methylphenyl)-3-(4-methoxycyclohexyl)imino-2-(2-methyl-3-pyridyl)amino-3,5-dihydrophenazine]",0.092
11,"Cc1ccc(-n2c3c/c(=N\CCN4CCOCC4)c(Nc4cccnc4)cc-3nc3ccccc32)cc1 [TBI-302, 5-(4-Methylphenyl)-3-(2-morpholinoethyl)imino-2-(3-pyridyl)amino-3,5-dihydro-phenazine]",0.125
12,"Cc1ccc(-n2c3c/c(=N\C4CCC(O)CC4)c(Nc4cccnc4)cc-3nc3ccccc32)cc1 (stereo not drawn) [TBI-338, 5-(4-Methylphenyl)-3-(4-hydroxycyclohexyl)imino-2-(3-pyridyl)amino-3,5-dihydrophenazine]",0.5
13,"COCC(COC)/N=c1\cc2n(-c3ccc(F)c(F)c3)c3ccccc3nc-2cc1Nc1cccnc1 [TBI-528, 5-(3,4-Difluorophenyl)-3-(1,3-dimethoxyisopropyl)imino-2-(3-pyridyl)amino-3,5-dihydrophenazine]",0.216
14,"Cc1ccc(Nc2cc3nc4ccccc4n(-c4ccc(F)cc4)c-3c/c2=N\[C@H]2CC[C@H](O)CC2)cn1 [TBI-906, 5-(4-Fluorophenyl)-3-(1′,4′-trans-4-hydroxycyclohexyl)imino-2-(6-methyl-3-pyridyl)amino-3,5-dihydrophenazine]",0.5
15,"COc1ccc(Nc2cc3nc4ccccc4n(-c4ccccc4)c-3c/c2=N\C(C)C)cn1 [TBI-510, 5-Phenyl-3-(1-methylethyl)imino-2-(6-methoxy-3-pyridyl)amino-3,5-dihydrophenazine]",0.5
16,"COc1ncccc1Nc1cc2nc3ccccc3n(-c3ccc(Br)cc3)c-2c/c1=N\C(C)C [TBI-516, 5-(4-Bromophenyl)-3-(1-methylethyl)imino-2-(2-methoxy-3-pyridyl)amino-3,5-dihydrophenazine]",0.049
17,"Cc1cncc(Nc2cc3nc4ccccc4n(-c4ccc(C(F)(F)F)cc4)c-3c/c2=N\C2CCOCC2)c1 [TBI-723, 5-(4-Trifluoromethylphenyl)-3-(4-tetrahydropyranyl)imino-2-(5-methyl-3-pyridyl)amino-3,5-dihydrophenazine]",0.041
18,"Cc1ccc(-n2c3c/c(=N\C4CCOCC4)c(Nc4ccc(C)nc4)cc-3nc3ccccc32)cc1 [TBI-317, 5-(4-Methylphenyl)-3-(4-tetrahydropyranyl)imino-2-(6-methyl-3-pyridyl)amino-3,5-dihydrophenazine]",0.055
19,"COc1ncccc1Nc1cc2nc3ccccc3n(-c3ccc(C)cc3)c-2c/c1=N\C1CCC(OC)CC1 (stereo not drawn) [TBI-309, 5-(4-Methylphenyl)-3-(4-methoxycyclohexyl)imino-2-(2-methoxy-3-pyridyl)amino-3,5-dihydrophenazine]",0.06

row,Compound,MIC [µg/mL]
1,"Cc1ccc(-n2c3c/c(=N\C4CCC4)c(Nc4cncc(C)c4)cc-3nc3ccccc32)cc1 [TBI-348, 5-(4-Methylphenyl)-3-cyclobutylimino-2-(5-methyl-3-pyridyl)amino-3,5-dihydrophenazine]",0.118
2,"COc1ncccc1Nc1cc2nc3ccccc3n(-c3ccc(Cl)cc3Cl)c-2c/c1=N\C(C)C [TBI-369, 5-(2,4-Dichlorophenyl)-3-(1-methylethyl)imino-2-(2-methoxy-3-pyridyl)amino-3,5-dihydrophenazine]",0.104
3,"Cc1cncc(Nc2cc3nc4ccccc4n(-c4ccc(C(F)(F)F)cc4)c-3c/c2=N\C2CC2)c1 [TBI-725, 5-(4-Trifluoromethylphenyl)-3-cyclopropylimino-2-(5-methyl-3-pyridyl)amino-3,5-dihydrophenazine]",0.031
4,"Cc1ccc(-n2c3c/c(=N\C4CCN(C5CCCC5)CC4)c(Nc4cccnc4)cc-3nc3ccccc32)cc1 [TBI-307, 5-(4-Methylphenyl)-3-(N-cyclopentyl-4-piperidyl)imino-2-(3-pyridyl)amino-3,5-dihydrophenazine]",0.125
5,"COC1CCC(/N=c2\cc3n(-c4ccc(OC(F)(F)F)cc4)c4ccccc4nc-3cc2Nc2cccnc2)CC1 (stereo not drawn) [TBI-162, 5-(4-Trifluoromethoxyphenyl)-3-(4-methoxycyclohexyl)imino-2-(3-pyridyl)amino-3,5-dihydrophenazine]",0.03
6,"Cc1cncc(Nc2cc3nc4ccccc4n(-c4ccccc4)c-3c/c2=N\C2CCOCC2)c1 [TBI-083, 5-Phenyl-3-(4-tetrahydropyranyl)imino-2-(5-methyl-3-pyridyl)amino-3,5-dihydrophenazine]",0.049
7,"Cc1ccc(Nc2cc3nc4ccccc4n(-c4cccc(Cl)c4)c-3c/c2=N\C2CCOCC2)cn1 [TBI-80A, 5-(3-Chlorophenyl)-3-(4-tetrahydropyranyl)imino-2-(6-methyl-3-pyridyl)amino-3,5-dihydrophenazine]",0.125
8,Cc1ncccc1Nc1cc2nc3ccccc3n(-c3ccc(Cl)cc3)c-2c/c1=N\C1CCOCC1 [TBI-452],0.168
9,"COc1ncccc1Nc1cc2nc3ccccc3n(-c3ccc(Cl)c(Cl)c3)c-2c/c1=N\C1CCC1 [TBI-946, 5-(3,4-Dichlorophenyl)-3-cyclobutylimino-2-(2-methoxy-3-pyridyl)amino-3,5-dihydrophenazine]",0.06
10,"Cc1ncccc1Nc1cc2nc3ccccc3n(-c3ccc(F)cc3)c-2c/c1=N\C(C)C [TBI-693, 5-(4-Fluorophenyl)-3-(1-methylethyl)imino-2-(2-methyl-3-pyridyl)amino-3,5-dihydrophenazine]",0.03
11,"Cc1ncccc1Nc1cc2nc3ccccc3n(-c3ccccc3)c-2c/c1=N\C1CCOCC1 [TBI-075, 5-Phenyl-3-(4-tetrahydropyranyl)imino-2-(2-methyl-3-pyridyl)amino-3,5-dihydrophenazine]",0.328
12,CC(C)/N=c1\cc2n(-c3cccc(OC(F)(F)F)c3)c3ccccc3nc-2cc1Nc1cccnc1 [TBI-1019],0.057
13,"COC1CCC(/N=c2\cc3n(-c4ccc(Br)cc4)c4ccccc4nc-3cc2Nc2cccnc2)CC1 (stereo not drawn) [TBI-091, 5-(4-Bromophenyl)-3-(4-methoxycyclohexyl)imino-2-(3-pyridyl)amino-3,5-dihydrophenazine]",0.062
14,"COc1ccc(Nc2cc3nc4ccccc4n(-c4ccc(F)cc4)c-3c/c2=N\C2CCCCC2)cn1 [TBI-932, 5-(4-Fluorophenyl)-3-cyclohexylimino-2-(6-methoxy-3-pyridyl)amino-3,5-dihydrophenazine]",0.148
15,"COc1ncccc1Nc1cc2nc3ccccc3n(-c3ccc(C(F)(F)F)cc3)c-2c/c1=N\C1CCC(O)CC1 (stereo not drawn) [TBI-719, 5-(4-Trifluoromethylphenyl)-3-(4-hydroxycyclohexyl)imino-2-(2-methoxy-3-pyridyl)amino-3,5-dihydrophenazine]",0.204
16,COc1ccc2nc3cc(Nc4ccc(C)nc4)/c(=N/C(C)C)cc-3n(-c3ccc(Cl)cc3)c2c1 [TBI-898],0.25
17,"Cc1ccc(Nc2cc3nc4cc(F)ccc4n(-c4ccc(Cl)c(Cl)c4)c-3c/c2=N\C(C)C)cn1 [TBI-887, 8-Fluoro-5-(3,4-dichlorophenyl)-3-(1-methylethyl)imino-2-(6-methyl-3-pyridyl)amino-3,5-dihydrophenazine]",0.062
18,"Cc1ncccc1Nc1cc2nc3ccccc3n(-c3ccc(F)cc3)c-2c/c1=N\C1CCC1 [TBI-1018, 5-(4-Fluorophenyl)-3-cyclobutylimino-2-(2-methyl-3-pyridyl)amino-3,5-dihydrophenazine]",0.028

# — patent US8716292B2, “Riminophenazines with 2-(heteroaryl)amino substituents and their anti-microbial activity” (priority 2010, dated 2014)
